Data on 4 compounds can be found in patent US6680304B2, “Disaccharides with anti-arthrosic properties” (Bioiberica, S.A., priority 2000, dated 2004).

Where a name gives a salt, the structure may show the parent alone.

In one assay the test system is aggrecan. The experiment in a line: Aggrecan accumulation in cell-associated matrix of IL-1-treated chondrocytes in alginate gel, flow cytometry. The format is cell-based, human. The note with it: for AGGR (aggrecan): 7 days, average of three measures; for change in accumulation of aggrecan in the CAM: IL-1+ chondrocytes, treated compared to untreated. As for the experimental part:
(§1) Each of the compounds (Ib, IC) has been tested on human articular cartilage chondrocytes obtained from 2 different donors. The chondrocytes were cultured over 7 days in alginate gel and during this period they were exposed to the different drugs. The cells were then isolated from the gel and tested. The test protocol specified that the chondrocytes were exposed to IL-1 since it has been shown that particularly IL-1-treated chondrocytes, as opposed to non-treated chondrocytes, respond to polysulphated polysaccharides. As a positive control, chondroitin sulphate (CS) and chondroitin polysulphate (CPS) have been used.
(§2) The accumulation of aggrecan and of type II collagen in the cell-associated matrix (CAM) of the chondrocytes in culture was the primary variable to evaluate the DMOAD (Disease Modifying Osteoarthritic Drug) effects of the 2 compounds. The intracellular levels of IL-1α and β, MMP-13 were also studied.
(§3) All assays were made by flow cytometry. Specific Fluoresceine Isothiocyanate- (FITC-) or Phycoerythin (PE-) conjugated monoclonal antibodies (Mab) against the different proteins have been used. The results were expressed as Mean Fluorescence Intensity (MFI) of the chondrocyte population after staining with the respective Mab.
(In general: A flow cytometer gives signals particle by particle.)

The test system of a further assay is type II collagen. The experiment in a line: Type II collagen accumulation in cell-associated matrix of IL-1-treated chondrocytes in alginate gel, flow cytometry. The format is cell-based, human. To be noted: for COLL (type II collagen): 7 days, average of three measures; for change in accumulation of type II collagen in the CAM: IL-1+ chondrocytes, treated compared to untreated. As for the experimental part:
as §1, §2, §3

Another assay has as its system IL-1α. The experiment in a line: Intracellular IL-1α level in IL-1-treated chondrocytes, flow cytometry. The format is cell-based, human. The note with it: for IL-1α / IL-Iα: 7 days, average of three measures; for change in levels of IL-1α: IL-1+ chondrocytes, treated compared to untreated. As for the experimental part:
as §1, §2, §3

The subject of the next assay is IL-1β. The experiment in a line: Intracellular IL-1β level in IL-1-treated chondrocytes, flow cytometry. The note with it: for IL-1β: 7 days, average of three measures; for change in levels of IL-1β: IL-1+ chondrocytes, treated compared to untreated. The format is cell-based, human. As for the experimental part: as §1, §2, §3
The test system of the next assay is MMP-13. The experiment in a line: Intracellular MMP-13 level in IL-1-treated chondrocytes, flow cytometry. The format is cell-based, human. To be noted: for MMP-13: 7 days, average of three measures; for change in levels of MMP-13: IL-1+ chondrocytes, treated compared to untreated. As for the experimental part:
as §1, §2, §3

Assay [1] deals with human articular chondrocytes. The experiment in a line: Overall DMOAD (cartilage structure modifying) effect on cultured chondrocytes. The format is cell-based. To be noted: effects comparable to those of CS and CPS. As for the experimental part: as §1, §2, §3
Setting [2] is: Table 1, donor F53 + IL-1β, 25 μ/ml.
Where [3] appears, read: Table 2, donor F53 + IL-1β, 25 μg/ml.
Setting [4] is: Table 1, donor F53 + IL-1β, 10 μ/ml.
Where [5] appears, read: Table 2, donor F53 + IL-1β, 10 μg/ml.

For the compound `CO[C@H]1O[C@H](COS(=O)(=O)[O-])[C@@H](O)[C@H](O[C@@H]2O[C@H](C(=O)[O-])[C@@H](O)[C@H](O)[C@H]2O)[C@H]1NC(C)=O.[Na+].[Na+]` [Ib, Methyl 2-acetamido-2-deoxy-3-O-(β-D-glucopyranosyluronic acid)-6-O-sulfo-α-D-glucopyranoside, disodium salt], the “AGGR (aggrecan)” value is recorded as 14.41 MFI in the assay on aggrecan (setting [2]) and 48.77 MFI in the assay with aggrecan (donor F16 + IL-1β, 25 μ/ml). For the same compound, the “COLL (type II collagen)” value in the assay with type II collagen (setting [2]) was 1.00 MFI; with type II collagen (donor F16 + IL-1β, 25 μ/ml) it was 2.92 MFI. Further, the IL-1α in the assay on IL-1α (setting [2]) turned out to be 44.24 MFI; in the assay with IL-1α (donor F16 + IL-1β, 25 μ/ml) it was 19.83 MFI. Further, the IL-1β in the assay on IL-1β (setting [2]) worked out at 2.92 MFI; in the assay on IL-1β (donor F16 + IL-1β, 25 μ/ml), 1.03 MFI. The MMP-13 was 17.67 MFI with MMP-13 (setting [2]) and 22.49 MFI in the assay on MMP-13 (donor F16 + IL-1β, 25 μ/ml). Moreover, in assay [1], the “overall conclusion on effect on cartilage” value is on record as “cartilage structure modifying effects”.

On to `CO[C@H]1O[C@H](COS(=O)(=O)O)[C@@H](OS(=O)(=O)O)[C@H](O[C@@H]2O[C@H](C(=O)O)[C@@H](O)[C@H](O)[C@H]2O)[C@H]1NC(C)=O` [Ic, Methyl 2-acetamido-2-deoxy-3-O-(β-D-glucopyranosyluronic acid)-4,6-di-O-sulfo-α-D-glucopyranoside, trisodium salt], for which the “AGGR (aggrecan)” value is given as 18.42 MFI in the assay on aggrecan (setting [3]) and 59.82 MFI in the assay with aggrecan (donor F73 + IL-1β, 25 μg/ml). Further, the “COLL (type II collagen)” value is 0.97 MFI in the assay with type II collagen (setting [3]) and 2.45 MFI with type II collagen (donor F73 + IL-1β, 25 μg/ml). Moreover, the IL-Iα with IL-1α (setting [3]) worked out at 44.69 MFI; in the assay with IL-1α (donor F73 + IL-1β, 25 μg/ml), 14.92 MFI. Also, the IL-1β is listed as 3.63 MFI in the assay with IL-1β (setting [3]) and 0.45 MFI in the assay with IL-1β (donor F73 + IL-1β, 25 μg/ml). In addition, the MMP-13 is recorded as 19.62 MFI in the assay on MMP-13 (setting [3]) and 18.92 MFI with MMP-13 (donor F73 + IL-1β, 25 μg/ml). Besides, in assay [1], the “overall conclusion on effect on cartilage” value was “cartilage structure modifying effects”.

As for chondroitin polysulphate [CPS], the “change in accumulation of aggrecan in the CAM” value in the assay with aggrecan is “statistically significant increase”. Further, the “AGGR (aggrecan)” value with aggrecan (setting [4]) amounted to 19.47 MFI; with aggrecan (setting [5]), 19.47 MFI; in the assay with aggrecan (donor F16 + IL-1β, 10 μ/ml), 46.41 MFI; in the assay on aggrecan (donor F73 + IL-1β, 10 μg/ml) it was 24.71 MFI. For the same compound, the “change in accumulation of type II collagen in the CAM” value in the assay with type II collagen is on record as “statistically significant increase”. In addition, the “COLL (type II collagen)” value in the assay with type II collagen (setting [4]) is 2.12 MFI; in the assay on type II collagen (setting [5]), 2.12 MFI; in the assay on type II collagen (donor F16 + IL-1β, 10 μ/ml), 2.31 MFI; in the assay with type II collagen (donor F73 + IL-1β, 10 μg/ml), 1.96 MFI. Also, in the assay on IL-1α, the “change in levels of IL-1α” value is given as “statistically significant decrease”. Besides, the IL-1α turned out to be 43.84 MFI in the assay with IL-1α (setting [4]) and 16.94 MFI with IL-1α (donor F16 + IL-1β, 10 μ/ml). In addition, the IL-Iα with IL-1α (setting [5]) amounted to 43.84 MFI; in the assay on IL-1α (donor F73 + IL-1β, 10 μg/ml), 16.43 MFI. Also, in the assay on IL-1β, the “change in levels of IL-1β” value is given as “statistically significant decrease”. The IL-1β came out at 2.68 MFI in the assay on IL-1β (setting [4]); 2.68 MFI in the assay with IL-1β (setting [5]); 1.18 MFI with IL-1β (donor F16 + IL-1β, 10 μ/ml); 0.45 MFI in the assay on IL-1β (donor F73 + IL-1β, 10 μg/ml). For the same compound, in the assay with MMP-13, the “change in levels of MMP-13” value is reported as “statistically significant decrease”. Besides, the MMP-13 in the assay on MMP-13 (setting [4]) turned out to be 11.82 MFI; in the assay on MMP-13 (setting [5]), 11.82 MFI; with MMP-13 (donor F16 + IL-1β, 10 μ/ml) it was 23.20 MFI; with MMP-13 (donor F73 + IL-1β, 10 μg/ml), 22.11 MFI.

As for chondroitin sulphate [CS], the “change in accumulation of aggrecan in the CAM” value in the assay with aggrecan is recorded as “statistically significant increase”. The “AGGR (aggrecan)” value came out at 15.09 MFI in the assay on aggrecan (setting [4]); 15.09 MFI in the assay with aggrecan (setting [5]); 47.39 MFI in the assay with aggrecan (donor F16 + IL-1β, 10 μ/ml); 28.72 MFI in the assay with aggrecan (donor F73 + IL-1β, 10 μg/ml). In addition, the “change in accumulation of type II collagen in the CAM” value with type II collagen is listed as “statistically significant increase”. Also, the “COLL (type II collagen)” value in the assay on type II collagen (setting [4]) worked out at 1.23 MFI; in the assay with type II collagen (setting [5]), 1.23 MFI; in the assay with type II collagen (donor F16 + IL-1β, 10 μ/ml), 2.97 MFI; with type II collagen (donor F73 + IL-1β, 10 μg/ml), 1.45 MFI. In addition, the “change in levels of IL-1α” value in the assay with IL-1α is reported as “statistically significant decrease”. Also, the IL-1α in the assay with IL-1α (setting [4]) is listed as 45.41 MFI; with IL-1α (donor F16 + IL-1β, 10 μ/ml), 17.09 MFI. Moreover, the IL-Iα is 45.41 MFI with IL-1α (setting [5]) and 17.49 MFI in the assay on IL-1α (donor F73 + IL-1β, 10 μg/ml). Further, the “change in levels of IL-1β” value in the assay with IL-1β is recorded as “statistically significant decrease”. The IL-1β amounted to 3.06 MFI in the assay with IL-1β (setting [4]); 3.06 MFI in the assay with IL-1β (setting [5]); 1.17 MFI in the assay on IL-1β (donor F16 + IL-1β, 10 μ/ml); 0.47 MFI in the assay on IL-1β (donor F73 + IL-1β, 10 μg/ml). Moreover, the “change in levels of MMP-13” value in the assay on MMP-13 is reported as “statistically significant decrease”. The MMP-13 came out at 14.70 MFI in the assay on MMP-13 (setting [4]); 14.70 MFI in the assay on MMP-13 (setting [5]); 23.34 MFI in the assay with MMP-13 (donor F16 + IL-1β, 10 μ/ml); 21.12 MFI in the assay with MMP-13 (donor F73 + IL-1β, 10 μg/ml).
